Assay results: PMC10003107, “Selectivity of Hydroxamate- and Difluoromethyloxadiazole-Based Inhibitors of Histone Deacetylase 6 In Vitro and in Cells” (International Journal of Molecular Sciences, 2023)
pEC50, pIC50: −log10 of the molar value. Several values for one entry are separate records, joined by “and”; a condition that tells them apart may be missing. Identical values can stand only once.

Key:
HDAC6-nanoLuc = target: T1, HDAC6-nanoLuc (Homo sapiens, UniProt Q9UBN7); test: nanoBRET target engagement assay, HDAC6; type: cell-based; details: HEK293T/17 cells stably expressing HDAC6-nanoLuc, 2 h
T1 sequence (Q9UBN7 1-1215): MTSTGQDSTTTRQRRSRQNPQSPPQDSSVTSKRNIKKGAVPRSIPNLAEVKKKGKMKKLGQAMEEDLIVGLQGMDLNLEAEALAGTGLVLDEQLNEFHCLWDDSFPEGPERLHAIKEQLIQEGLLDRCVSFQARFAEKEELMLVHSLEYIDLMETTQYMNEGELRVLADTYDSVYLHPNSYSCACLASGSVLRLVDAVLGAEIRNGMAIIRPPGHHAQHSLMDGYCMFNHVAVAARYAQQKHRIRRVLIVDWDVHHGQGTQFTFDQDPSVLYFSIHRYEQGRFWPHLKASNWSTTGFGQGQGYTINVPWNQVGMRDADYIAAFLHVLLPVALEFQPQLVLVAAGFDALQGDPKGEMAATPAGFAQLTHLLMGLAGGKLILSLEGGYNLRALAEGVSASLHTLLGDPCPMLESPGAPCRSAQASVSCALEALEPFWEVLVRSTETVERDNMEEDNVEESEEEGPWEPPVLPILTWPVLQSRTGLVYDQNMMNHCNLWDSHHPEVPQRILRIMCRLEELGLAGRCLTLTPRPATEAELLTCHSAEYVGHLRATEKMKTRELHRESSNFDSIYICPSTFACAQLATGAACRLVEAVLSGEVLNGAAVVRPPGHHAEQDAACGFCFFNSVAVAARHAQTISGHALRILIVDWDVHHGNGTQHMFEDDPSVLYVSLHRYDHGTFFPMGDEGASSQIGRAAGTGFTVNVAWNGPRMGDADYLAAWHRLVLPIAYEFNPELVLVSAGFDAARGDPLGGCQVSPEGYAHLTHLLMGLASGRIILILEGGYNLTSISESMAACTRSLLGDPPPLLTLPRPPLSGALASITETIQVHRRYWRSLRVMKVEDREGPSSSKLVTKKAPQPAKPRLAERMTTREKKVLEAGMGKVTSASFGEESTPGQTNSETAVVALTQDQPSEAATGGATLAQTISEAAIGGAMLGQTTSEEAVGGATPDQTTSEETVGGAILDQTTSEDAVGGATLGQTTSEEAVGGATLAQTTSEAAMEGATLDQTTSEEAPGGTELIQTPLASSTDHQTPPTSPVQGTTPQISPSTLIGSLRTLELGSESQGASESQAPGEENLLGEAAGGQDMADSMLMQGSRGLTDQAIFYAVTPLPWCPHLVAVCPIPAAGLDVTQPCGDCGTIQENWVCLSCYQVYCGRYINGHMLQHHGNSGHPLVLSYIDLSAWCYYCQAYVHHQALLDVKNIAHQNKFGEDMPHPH

HDAC1 [1] = target: T2, HDAC1 (Homo sapiens, UniProt Q13547); test: In vitro deacetylation assay, HDAC1 (RHKK substrate); type: biochemical; details: for pIC50: purified human HDAC1, RHK[AcK]-AMC (RHKK) substrate; for SI (HD6/HD1) RHKK: ratio of IC50 HDAC1 (RHKK) divided by IC50 HDAC6
T2 construct: HDAC1 1-482 Addgene; Strep-FLAG-HALO (N); made in house; host or cells: HEK293/T17

HDAC1 [2] = target: T2, HDAC1; test: In vitro deacetylation assay, HDAC1 (GAK substrate); type: biochemical; details: for pIC50: purified human HDAC1, GAK substrate 10 µM
HDAC6 = target: T3, HDAC6 (Homo sapiens, UniProt Q9UBN7); test: In vitro deacetylation assay, HDAC6 (GAK substrate); type: biochemical; details: for EC50: Figure 2C, in vitro data in μM; for pIC50: purified human HDAC6, Ac-GAK-Ac-AMC (GAK) substrate 10 µM
T3 construct: HDAC6 2-1215 Open Biosystems; Strep-FLAG-HALO (N); made in house; host or cells: HEK293/T17
T3 sequence (Q9UBN7 2-1215): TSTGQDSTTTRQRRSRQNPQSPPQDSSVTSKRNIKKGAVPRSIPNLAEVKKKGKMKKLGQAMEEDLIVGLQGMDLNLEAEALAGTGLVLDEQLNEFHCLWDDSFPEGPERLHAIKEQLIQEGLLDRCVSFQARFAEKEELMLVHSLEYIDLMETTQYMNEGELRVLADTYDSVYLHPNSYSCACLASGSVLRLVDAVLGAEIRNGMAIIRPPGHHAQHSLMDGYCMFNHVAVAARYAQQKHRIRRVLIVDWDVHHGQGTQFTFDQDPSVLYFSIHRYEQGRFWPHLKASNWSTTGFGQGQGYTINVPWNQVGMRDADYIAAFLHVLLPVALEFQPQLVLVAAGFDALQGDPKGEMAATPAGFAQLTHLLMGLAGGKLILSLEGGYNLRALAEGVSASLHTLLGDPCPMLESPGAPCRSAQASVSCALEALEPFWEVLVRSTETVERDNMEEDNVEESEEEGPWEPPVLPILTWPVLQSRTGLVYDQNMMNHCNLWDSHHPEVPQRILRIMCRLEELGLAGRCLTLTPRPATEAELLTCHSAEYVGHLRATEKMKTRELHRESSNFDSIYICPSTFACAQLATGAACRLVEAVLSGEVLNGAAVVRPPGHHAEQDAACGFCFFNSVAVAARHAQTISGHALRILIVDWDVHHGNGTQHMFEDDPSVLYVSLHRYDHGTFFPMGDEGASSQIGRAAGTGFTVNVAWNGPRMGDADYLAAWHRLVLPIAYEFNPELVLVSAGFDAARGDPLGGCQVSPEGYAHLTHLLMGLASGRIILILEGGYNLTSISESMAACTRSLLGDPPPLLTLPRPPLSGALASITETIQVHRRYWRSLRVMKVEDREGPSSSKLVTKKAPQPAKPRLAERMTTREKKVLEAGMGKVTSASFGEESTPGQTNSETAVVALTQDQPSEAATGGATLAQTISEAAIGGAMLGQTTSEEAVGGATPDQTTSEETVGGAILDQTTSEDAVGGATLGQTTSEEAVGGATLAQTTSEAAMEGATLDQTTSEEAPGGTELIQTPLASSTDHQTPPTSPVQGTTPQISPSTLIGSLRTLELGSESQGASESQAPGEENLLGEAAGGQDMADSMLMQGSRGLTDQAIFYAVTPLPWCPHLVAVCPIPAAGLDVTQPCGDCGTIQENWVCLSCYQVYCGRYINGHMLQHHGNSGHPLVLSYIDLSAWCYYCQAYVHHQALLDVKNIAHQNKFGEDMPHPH

MTT viability assay = type: cell-based; details: human, RPMI-8226 lymphoblasts, RPMI-8226 cells, read-out: EC50 cytotoxicity (MTT viability)
Procedure: RPMI-8226 lymphoblasts (ATTC #CCL-155) were used to assess the cytotoxicity of tested compounds. […] Dilution series of tested inhibitors were prepared as 10x stock solutions in PBS and 10 μL was added to cells and incubated under a 5% CO2 atmosphere at 37 °C, for 2 days. Following incubation, 10 μL of MTT reagent (3-(4,5-dimethylthiazol-2-yl)-2,5-diphenyltetrazolium bromide, 5 mg/mL in PBS, Sigma Aldrich) was added to each well and incubated for 90 min, 37 °C, 5% CO2. […]

T2 sequence (Q13547 whole entry): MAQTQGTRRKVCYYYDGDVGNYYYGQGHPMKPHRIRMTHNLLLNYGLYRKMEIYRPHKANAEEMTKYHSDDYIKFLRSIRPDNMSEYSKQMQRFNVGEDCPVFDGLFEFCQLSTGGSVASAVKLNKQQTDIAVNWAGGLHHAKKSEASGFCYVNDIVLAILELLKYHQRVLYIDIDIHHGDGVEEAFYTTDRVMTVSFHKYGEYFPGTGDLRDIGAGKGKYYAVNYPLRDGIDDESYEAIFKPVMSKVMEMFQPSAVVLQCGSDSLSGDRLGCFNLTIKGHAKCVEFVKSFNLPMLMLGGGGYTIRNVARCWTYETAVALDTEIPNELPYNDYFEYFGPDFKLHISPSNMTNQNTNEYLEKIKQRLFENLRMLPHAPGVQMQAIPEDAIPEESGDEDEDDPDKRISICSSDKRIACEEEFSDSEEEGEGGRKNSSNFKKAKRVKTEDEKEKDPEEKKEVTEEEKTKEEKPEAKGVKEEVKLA

Structure (SMILES)	pEC50 (HDAC6-nanoLuc)	pIC50 (HDAC1 [1])	SI (HD6/HD1) RHKK (HDAC1 [1])	EC50 (HDAC1 [2]; Figure 2C, in vitro data (GAK) in μM)	pIC50 (HDAC1 [2])	SI (HD6/HD1) GAK, in vitro (HDAC1 [2]; ratio of IC50 HDAC1 (GAK) divided by IC50 HDAC6)	EC50 (HDAC6)	pIC50 (HDAC6)	EC50 at 48 h (MTT viability assay)
O=C(NO)c1cnc(NC2(c3cccc(F)c3)CCCCC2)nc1 [ACY-775]	6.57	4.66	19,550	1.19 µM	5.92	1076	0.0011 µM	8.95	8600 nM
CS(=O)(=O)N(Cc1ccc(-c2nnc(C(F)F)o2)cn1)c1cccc(Cl)c1 [compound 7, N-(3-chlorophenyl)-N-((5-(5-(difluoromethyl)-1,3,4-oxadiazol-2-yl)pyridin-2-yl)methyl)methanesulfonamide]	6.80	< 4.30	>25,000		< 4.30		0.0021 µM	8.68 and 8.69	> 50000 nM
